Experimental findings from US20060159639A1, “Pseudo body odor composition and perfume composition for inhibiting body odor” (priority 2003, published 2006) are described below.

Like-named read-outs stand apart in the source and are kept apart here.

The assay is described as follows: Suppression test of Experimental Example 1: masking and harmonizing effect in a cup, four expert panelists.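 For harmonizing: score 1 means in harmony 0 indefinite and −1 not in harmony.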 The settings on record: for Masking: scale 0-3. The protocol:
In the present invention, the selection of the above component (I), component (II) and component (III) was carried out as follows. That is, one of the pseudo body odor compositions mentioned above and a target fragrance component were mixed and left at room temperature for 30 minutes. Thereafter, evaluations of the masking and harmonizing effects to the acid odor were carried out by four expert panelists.
After 30 minutes, a hole of about 1 cm in diameter was formed in the aluminum foil and the investigations of masking effect and the harmonizing effect were carried out according to following evaluation criteria by four expert panelists.
3: Excellent in the masking.
2: Substantially excellent in the masking.
1: Slightly sensible of the body odor (sweat odor and armpit odor).
0: Sensible of the body odor (sweat odor and armpit odor) (insufficient in the masking)

Where [1] appears, read: 200 μl pseudo body odor composition of Example 4 and 10 μl perfume on filter papers in sealed about 500 ml cup, after 30 minutes, four expert panelists.
The mark [2] stands for this setting: 200 μl pseudo body odor composition of Example 4 and 10 μl perfume on filter papers in sealed about 500 ml cup, after 30 minutes, four expert panelists, scale −1 to 1.

`COc1ccc(C)cc1` [p-Cresyl methyl ether] had a Masking under setting [1] of 3. Also, the Harmonizing under setting [2] was found to be 1.
Regarding `CC(C)(C)C1CCC(O)CC1` (centres unmarked) [p-tert-Butylcyclohexanol], under setting [1], the Masking is 1.5 points. Besides, the Harmonizing under setting [2] was found to be 0.
Under setting [1], `CC(=O)OC1CCC(C(C)(C)C)CC1` (centres unmarked) [p-tert-Butylcyclohexyl acetate] had a Masking of 1.5 points. The Harmonizing under setting [2] is given as −1.
`CC(C)(O)Cc1ccccc1` [α,α-Dimethylphenylethyl, α,α-dimethyl phenylethyl alcohol] showed a Masking under setting [1] of 0.5 points. The Harmonizing under setting [2] is on record as −1.
For the molecule `C/C=C\C(=O)C1C(C)=CCCC1(C)C` (stereo not drawn) [α-Damascone], the Masking under setting [1] is recorded as 2. This molecule gave a Harmonizing under setting [2] of 0.
In the same order, the values of `C=CCCC(=O)C1=CCCC(C)(C)C1` [α-Dynascone, 1-(5,5-dimethyl-cyclohexene-1-yl)-4-pentene-1-one] are 3 and 1.
Regarding `CCCCCCC(C=O)=Cc1ccccc1` [α-Hexyl cinnamic aldehyde], under setting [2], the Harmonizing was −1.
With `C/C=C/C(=O)C1=C(C)CCCC1(C)C` [β-Damascone], under setting [1], the Masking is recorded as 2. Also, under setting [2], the Harmonizing is given as 1.
`CC(=O)/C=C/C1=C(C)CCCC1(C)C` [β-Ionone] displayed a Masking under setting [1] of 1.5 points. In addition, under setting [2], the Harmonizing was −1.
The molecule `COc1ccc2ccccc2c1` [β-Naphthol methyl ether] showed a Harmonizing of 1.
Regarding `CCCCCCC1CCC(=O)O1` (centres unmarked) [γ-Decalactone], the Masking under setting [1] is recorded as 2.5 points. The molecule further had a Harmonizing under setting [2] of 1.
For the molecule `CC(=O)/C(C)=C/C1C(C)=CCCC1(C)C` (centres unmarked) [γ-Methylionone], under setting [1], the Masking is on record as 2. The Harmonizing under setting [2] is 1.
The matching figures for `CCCCCC1CCC(=O)O1` (centres unmarked) [γ-Nonalactone]: 2.5 points and 1.
As to `CCCCCCCC1CCC(=O)O1` (centres unmarked) [γ-Undecalactone], the Harmonizing stood at 1.
`C/C=C/C(=O)C1C(C)C=CCC1(C)C` (centres unmarked) [δ-Damascone] gave a Masking under setting [1] of 1.5 points. Under setting [2], this molecule came in with a Harmonizing of 0.
For Methyl naphthyl ketone, the Masking under setting [1] was 1.5 points. In addition, the Harmonizing under setting [2] is listed as −1.
In the same order, the values of Methylionone are 2 and 1.
Under setting [1], Methylionone soap had a Masking of 2. This molecule also registered a Harmonizing under setting [2] of 1.
As for isocamphyl cyclohexanol [Santalex], under setting [1], the Masking was found to be 0.5 points. Besides, the Harmonizing under setting [2] is listed as −1.
